The text below walks through data of US20160090351A1, “INHIBITORS OF DEUBIQUITINATING PROTEASES” (BRANDEIS UNIVERSITY, priority 2013, published 2016).

Data set [1] has as its system USP9x and USP7. Description: HA-Ub-VS activity profiling of lysates from treated HEK 293T cells, USPs. The format is cell-based, human. Conditions: 100 μM, 2 hours. Here is the method:
FIG. 32 depicts data showing that diphenyl carbonates inhibit DUBs in HEK 293T cells. A. Viability of HEK 293T cells assessed by the propidium iodide exclusion method: diphenyl carbonate (100 μM), bortezomib (V, 20 μM) and G5 (2 μM). N≧3, mean+/−s.d. B. HEK 293T cells were treated with the stated compounds (50 μM) for 2 h and then assayed for the accumulation of K48-linked Ub species. C. As in A, but K63-linked Ub was assayed. D. HEK 293T cells were treated with C14, C15, C17, C18 (100 μM) or DMSO for 2 hours, then harvested, lysed and treated with HA-Ub-VS. After 30 min, lysates were analyzed by SDS-PAGE and probed for HA, tubulin and actin. An intervening lane was removed for clarity. E. HEK 293T cells expressing Ub-G76V-GFP were treated with diphenyl carbonates (100 μM), bortezomib (20 μM) and G5 (2 μM). […] N>3, Mean+/−s.d. See also FIG. 39.
Lysate labeling assay on untransfected cells (1.5 mg/mL) was run with the stated concentration of inhibitor (or 1% DMSO control) for between 19-60 mins. After this time HA-Ub-VS (1.5-0.7 μM) was added and incubated for 19 mins. After this time reaction mixture (9 μL) was removed and quenched in 2× (final concentration) reducing loading buffer. […]
Lysates from HEK 293T cells treated with diphenylcarbonates were analyzed by HA-Ub-VS activity profiling to assess the selectivity of DUB inhibition in the context of a cell.

For data set [2], the system named is K562 cells. The experiment in a line: apoptosis, cell cycle and viability of K562 cells by flow cytometry. Type of data set: cell-based, human. Conditions: K562 cells. Here is the method: K562 cells are from a myelogenous leukemia line that expresses Bcr-Abl kinase. A. K562 cells were treated with TU50 for 24 hours after which time the cells were treated with annexin V-FITC and propidium iodide. Cells were then analyzed by flow cytometry. Cells showing only annexin V-FITC were considered apoptotic whereas cells showing both annexin V-FITC and propidium iodide were considered necrotic. N=2. All points show a significant difference to the vehicle (DMSO) with p<0.05. […] All points show a significant difference to vehicle (DMSO) with p<0.02. C. Same as A, but the incubation period was 8 hours. N>2. All points show a significant difference to DMSO with p<0.02. D, K562 cells were treated with TU50 for 4 hours. Samples were analyzed by SDS-PAGE and immunoblotting with anti-Bcr-Abl antibody. E. Quantitation of blot in D. The signal for tubulin was used to normalize the Bcr-Abl signal. N=3.
FIG. 40 depicts data showing that diphenyl carbonates induce the degradation of Bcr-Abl kinase. A. K562 cells were treated with C17 for 24 h (1 dose) then analyzed for Bcr-Abl expression by western blot with anti-Abl antibody. B. Quantitation of blots in A normalized to actin. C. K562 cells were treated with C17 for 24 h then the amount of cells in G1 and apoptosis were recorded (N=3). D. K562 were treated with C15 for 4 h then analyzed for Bcr-Abl expression using western blot. E. Quantitation of Bcr-Abl from D normalized to tubulin (N=4). F. Same K562 lysates were separately analyzed for K63-linked ubiquitin. G. Quantitation of blots in F (N=4). Differences between all bars is significant p<0.01). H. K562 cells were treated with C15 for 24 h after which time cells were fixed in ethanol, treated with propodium iodide/RNAse then analyzed by FACS. Viability was calculated using forward and side scatter. I. Same experiment as H but red fluorescence was measured to determine DNA content

Data set [3] relates to Mdm2, p53, p21/WAF1. Description: Mdm2, p53 and p21/WAF1 levels in MCF7 cells. The format is cell-based, human. The conditions noted are these: for Mdm2 levels: C17 4 h, C15 6 hours dosed every 2 hours. Here is the method: FIG. 35 depicts data showing that diphenylcarbonates reduce the levels of Mdm2 and cause the accumulation of P53 and P21 in MCF7 cells. A. MCF7 cells were treated with C17 for 4 h and Mdm2 levels were measured. B. As in A, P53 measured. C. As in A, P21 measured. D. MCF7 and B16/F10 cells were treated with C17 every 24 hours. After 72 hours, the number of viable cells was measured by Alamar Blue®. See also FIG. 41 and FIG. 42.
C. Effect of C15 on PARP cleavage and P53 levels. […] E. Effects of C15 on Mdm2 and P21 levels. […] F. DMSO treated cells. […] C17 was dosed every 24 h. After this time, cells were analyzed by flow cytometry.
Transfected cells were harvested 1.5 days post transfection. […] Typically clarified lysate was analyzed.
The ability of diphenyl carbonates to inhibit USP7 function in cells was also assessed. The ubiquitin-ligase Mdm2 is a substrate for USP7. Mdm2 is responsible for the ubiquitination and subsequent degradation of p53. Mdm2 is over-expressed in many cancer cells, resulting in the depletion of p53. Mdm2 is itself degraded via an ubiquitin-dependent process. USP7 removes ubiquitin from Mdm2, protecting it from degradation. Like Mdm2, USP7 is over-expressed in many cancers. Inhibition of USP7 promotes the proteasome-mediated degradation of Mdm2, which causes an increase in p53 levels, as well as those of the downstream signaling protein p21/WAF1, and ultimately induces apoptosis.

In data set [4] the test system is B16/F10 cells. The experiment in a line: proliferation and cell cycle of B16/F10 cells. Type of data set: cell-based, mouse.
Description: MCF7 cells were dosed every 2 hours with the indicated concentration of C15. After 6 hours, cells were lysed by freeze thaw and then sonicated in 0.5% SDS. A. Total lysates were blotted for K48-linked ubiquitin and actin. B. Normalized K48-linked ubiquitin signal was plotted as a function of concentration of C15 (N=2). C. […] Doxorubicin (Dox) is a DNA damaging agent that serves as a positive control for the induction of P53. D. Quantitation of P53 levels in C relative to actin (N=2). […] MCF7 cells were treated under the stated conditions then analyzed for cell cycle. F. DMSO treated cells. G. Cells treated with C17 (25 μM), dosed every 24 hours. H. Cells treated with C17 (50 μM), dosed every 24 hours. […] These cells were left for 72 h (single dose) after which time the total number of viable cells was analyzed using Alamar Blue®. All data are n≧4 showing mean+/−s.e.m. K. MCF7 cells were plated with C17 for 24 hours after which time the total number of viable cells was measured by Alamar Blue®. L. B16/F10 cells were treated with DMSO, C17 or P005091 for 72 h. […] After this time, cells were analyzed by flow cytometry.
All cells were grown at 37° C. in a 5% CO2 humidified atmosphere in DMEM supplemented with 10% heat inactivated FBS, 1× glutamax, and 1× penicillin/streptomycin. […] Typically clarified lysate was analyzed. […] Lysates were centrifuged (20 000 rpm, microcentrifuge, Eppendorf 5417 C) concentration was measured, then 0.1% SDS was added and lysates were sonicated for a total of 30 s (in 10 s bursts). Protein concentration was determined using Bradford assay with IgG as standard and analyzed by western blot as delineated below {[9 μg total protein for K48-linked ubiquitin (1:9000 antibody dilution), SMAD4 (1:500) or PARP (1:1000)]; [30-40 μg was loaded for K63-linked ubiquitin (1:1500), Mdm2 (1:1000) or Abl (1:1500). […]
Data set [5] concerns MCF7 cells.
Description: (§1) MCF7 cells were dosed every 2 hours with the indicated concentration of C15. After 6 hours, cells were lysed by freeze thaw and then sonicated in 0.5% SDS. […] MCF7 cells were treated under the stated conditions then analyzed for cell cycle. […] G. Cells treated with C17 (25 μM), dosed every 24 hours. H. Cells treated with C17 (50 μM), dosed every 24 hours. […] These cells were left for 72 h (single dose) after which time the total number of viable cells was analyzed using Alamar Blue®. All data are n≧4 showing mean+/−s.e.m. K. MCF7 cells were plated with C17 for 24 hours after which time the total number of viable cells was measured by Alamar Blue®.
(§2) All cells were grown at 37° C. in a 5% CO2 humidified atmosphere in DMEM supplemented with 10% heat inactivated FBS, 1× glutamax, and 1× penicillin/streptomycin. […] Proliferation assays were conducted by plating cells at 5% confluence in 96 well plates together with compound or 0.1% DMSO. Cells were allowed to grow for 72 hours (a 24 h dosing regimen was used for carbonate compounds) and then Alamar Blue® was added and number of cells was measured by fluorescence on a microplate reader.
In data set [6] the test system is MCF7 cells. Description: viability and cell cycle of MCF7 cells (Alamar Blue, FACS).
Description: as §1, §2

On to `NCc1ccc(OC(=O)Oc2cccc3ccccc23)cc1` [Compound C18], for which the “HA-Ub-VS labeling of USP9x and USP7 after treatment of cells” value in data set [1] is “most potent compounds”.
Consider `NCc1ccc(OC(=O)Oc2ccc3ccccc3c2)cc1` [Compound C17], for which the “G1 and apoptotic cells” value in data set [2] (24 h incubation) was “dose-dependent increase in G1 and apoptotic cells”. Besides, the “HA-Ub-VS labeling of USP9x and USP7 after treatment of cells” value in data set [1] is “most potent compounds”. In data set [3], the p21/WAF1 levels result is listed as “robust increase in p21/WAF1 levels”, the p53 levels result is on record as “concomitant increase in p53” and the Mdm2 levels result is “Mdm2 levels decreased”. In addition, in data set [4] (72 h, flow cytometry), the cell cycle distribution result is “decrease in cells in G1 phase and an increase in G2”. The proliferation entry in data set [4] (72 hours, dosed every 24 hours) was “inhibited proliferation in B16/F10 cells”. In addition, in data set [5], the “cytotoxicity after single dose, 72 h” value is reported as “no cytotoxicity was observed” and the “decrease of cell viability” value was found to be 50%. Besides, the “viability after single dose, 24 h” value in data set [6] (Alamar Blue) is recorded as “small, but significant, decrease in viability”. In data set [6] (FACS, dosed every 24 hours), the G1 phase cells result is on record as “significant increase in G1 phase cells”.
Regarding `NCc1ccc(OC(=O)Oc2ccc(Br)cc2)cc1` [Compound C15, 4-(aminomethyl)phenyl(4-bromophenyl)carbonate], the “viability, G1 and apoptotic cells” value in data set [2] (24 h, at 50 μM) is “decrease in viability, and increase in G1 and apoptotic cells”. Also, in data set [3], the p21/WAF1 levels result is given as “decreased p21/WAF1”, the p53 levels result is “increased P53 levels” and the Mdm2 levels result was “decreased Mdm2”.
